Assay results reported in US20100098690A1, “PHARMACEUTICAL COMPOSITION” (KYOWA HAKKO KIRIN CO., LTD., priority 2007, published 2010).

Experiments:
[1] = test system: human multiple myeloma cell line (NCI-H929); assay: In vitro cell growth inhibition assay (WST-1) with isobologram analysis of combination effect; assay type: cell-based; conditions: combined with the test compound (hydrochloride of Compound 22), 72 hours, isobologram method
Procedure: (§1) Measurement of the cell growth inhibition rate of the test compound and a combined compound on a human multiple myeloma cell line (NCI-H929), a human non-small-cell lung cancer cell line (PC-9), a human breast cancer cell line (BT-474), a human renal cancer cell line (VMRC-RCZ), a human chronic myeloid leukemia cell line (K-562) and a human acute myeloid leukemia cell line (MOLM-13) was carried out in the following manner.
(§2) For the culture of NCI-H929, Roswell Park Memorial Institute's Medium (RPMI) 1640 medium (Invitrogen) containing 10% fetal calf serum (FCS, Invitrogen), 10 mmol/L HEPES (Invitrogen), 1 mmol/L sodium pyruvate (Invitrogen), 4.5 g/L glucose (Sigma-Aldrich) and 50 μmol/L 2-mercaptoethanol (Invitrogen) was used. For the culture of PC-9, RPMI1640 medium containing 10% FCS was used. For the culture of BT-474, Dulbecco's Modified Eagle Medium (DMEM) (Invitrogen) containing 10% FCS, 1 mmol/L sodium pyruvate, 1.2 mmol/L oxalacetic acid (Sigma-Aldrich), 0.01 mg/mL insulin (Sigma-Aldrich), 10% NCTC-135 medium (Sigma-Aldrich), 4 mmol/L L-glutamine (Invitrogen), 1.5 g/L sodium hydrogencarbonate (Invitrogen) and 4.5 g/L glucose was used.
(§3) NCI-H929 cells were suspended to 12.5×10^4 cells/mL with culture medium (PC-9, 0.625×10^4 cells/mL; BT-474, 12.5×10^4 cells/mL; VMRC-RCZ, 2.5×10^4 cells/mL; MOLM-13, 12.5×10^4 cells/mL; K-562, 6.25×10^4 cells/mL), and the cell suspensions were seeded to the wells of 96-well U-bottom plates (Nalge Nunc International) in an amount of 80 μL/well, followed by incubation in a 5% CO2 incubator at 37° C. for 5 hours (PC-9, BT-474 and VMRC-RCZ, 24 hours; MOLM-13 and K-562, 4 hours).
(§4) The solutions of the test compound and the combined compound diluted with culture medium were added to the plates in an amount of 10 μL/well, respectively, followed by further incubation in a 5% CO2 incubator at 37° C. for 72 hours. WST-1 reagent {4-[3-(4-iodophenyl)-2-(4-nitrophenyl)-2H-5-tetrazolio]-1,3-benzene disulfonate sodium salt} (Roche Diagnostics) was added to the wells in an amount of 10 μL/well and the plates were incubated in a CO2 incubator for 2 hours at 37° C. The absorbance at 450 nm (control wavelength: 655 nm) was measured using a microplate spectrophotometer SPECTRA max 340PC (Molecular Devices). Separately, the solvent used for preparation of each compound solution alone was added to the wells, and the absorbance was measured in the same manner as above after 72-hour incubation carried out in the same manner as above and also immediately after the addition of the solvent. The cell growth inhibition rate on the cells in the compound-added groups (groups treated with the test compound alone, the combined compound alone, or both compounds) was calculated according to the following equation.
(§5) The combined effect was analyzed using the isobologram method [International Journal of Radiation Oncology, Biology, Physics, Vol. 5, p. 85 (1979)]. Judgment of the efficacy of combination therapy was carried out according to the method described in International Journal of Radiation Oncology, Biology, Physics, Vol. 5, p. 85 (1979), Ibid., Vol. 5, p. 1145 (1979), etc.

[2] = test system: human multiple myeloma NCI-H929 cells; assay: Antitumor effect in a mouse model transplanted with human multiple myeloma NCI-H929 cells (combination with bortezomib); assay type: in vivo, Fox C.B-17/Icr-scidJcl mice; conditions: day 14; test compound 50 mg/kg i.v. and bortezomib 1 mg/kg i.v., once a day on days 0, 3, 7 and 10
Procedure: On the day before the transplantation of cancer cells, 0.3 mg/mouse of an anti-asialo GM1 antibody (ca. 10 mg protein/1 mL vial) (Wako Pure Chemical Industries, Ltd.) was intraperitoneally administered to Fox C.B-17/Icr-scidJcl mice (Clea Japan, Inc.). NCI-H929 cells were cultured in RPMI1640 medium containing 10% fetal calf serum (FCS) in a 5% CO2 incubator at 37° C. and then transplanted into the abdominal subcutaneous tissue of the mice in an amount of 1×10^7 cells/mouse. Ten days after the transplantation, the longer diameter and shorter diameter of the tumor subcutaneously grown were measured with slide calipers, and the tumor volume was calculated according to the following equation.
(§8) At the same time, the body weight of each mouse was measured, and the mice were divided into the following groups of 5 mice each so that the mean tumor volume and the mean body weight become uniform. The day was defined as day 0 of the administration test, and administration was started.
The test compound was dissolved in physiological saline (Otsuka Pharmaceutical Co., Ltd.) at a concentration of 5 mg/mL and intravenously administered from the caudal vein in a dose of 0.01 mL/g body weight of mouse (50 mg/kg) once a day on days 0, 3, 7 and 10. […]

[3] = test system: human acute myeloid leukemia cell line (MOLM-13); assay: In vitro cell growth inhibition assay (WST-1) with isobologram analysis of combination effect; assay type: cell-based; conditions: combined with the test compound (hydrochloride of Compound 22), 72 hours, isobologram method
Procedure: as §1
(§6) For the culture of VMRC-RCZ, Minimum Essential Medium (MEM) (Invitrogen) containing 10% FCS, 0.1 mmol/L Non-Essential Amino Acids (NEAA, Invitrogen), 4 mmol/L HEPES, 2 mmol/L L-glutamine and 1.5 g/L sodium hydrogencarbonate was used. For the culture of K-562, Iscove's Modified Dulbecco's Medium (IMDM) (Invitrogen) containing 10% FCS was used. For the culture of MOLM-13, RPMI1640 medium containing 10% FCS was used.
(§7) NCI-H929 cells were suspended to 12.5×10^4 cells/mL with culture medium (PC-9, 0.625×10^4 cells/mL; BT-474, 12.5×10^4 cells/mL; VMRC-RCZ, 2.5×10^4 cells/mL; MOLM-13, 12.5×10^4 cells/mL; K-562, 6.25×10^4 cells/mL), and the cell suspensions were seeded to the wells of 96-well U-bottom plates (Nalge Nunc International) in an amount of 80 μL/well, followed by incubation in a 5% CO2 incubator at 37° C. for 5 hours (PC-9, BT-474 and VMRC-RCZ, 24 hours; MOLM-13 and K-562, 4 hours). […]

[4] = test system: human non-small-cell lung cancer cell line (PC-9); assay: as above; assay type: cell-based; conditions: combined with the test compound (hydrochloride of Compound 22), 72 hours, isobologram method
Procedure: as §1, §2, §3, §4, §5

[5] = test system: human lung cancer NCI-H596 cells; assay: Antitumor effect in a mouse model transplanted with human lung cancer NCI-H596 cells; assay type: in vivo, BALB/cAJcl-nu mice; conditions: day 11; test compound 100 mg/kg i.v. twice a day x 5 days; gefitinib 100 mg/kg oral once a day x 5 days
Procedure: NCI-H596 cells were cultured in RPMI1640 medium containing 10% fetal calf serum (FCS) in a 5% CO2 incubator at 37° C. and then transplanted into the abdominal subcutaneous tissue of BALB/cAJcl-nu mice (Clea Japan, Inc.) in an amount of 1×10^7 cells/mouse. From the mice in which tumor grew, the tumor was excised and the tumor tissue was cut into ca. 8 mm^3 tissue pieces and then transplanted into the abdominal subcutaneous tissue of BALB/cAJcl-nu mice (Clea Japan, Inc.) using a trocar. Seventeen days after the transplantation, the longer diameter and shorter diameter of the subcutaneous tumor were measured with slide calipers, and the tumor volume was calculated according to the following equation.
as §8
(§9) The test compound was dissolved in physiological saline (Otsuka Pharmaceutical Co., Ltd.) at a concentration of 10 mg/mL and intravenously administered from the caudal vein in a dose of 0.01 mL/g body weight of mouse (100 mg/kg) twice a day for consecutive days from day 0 to day 4. […]

[6] = test system: human chronic myeloid leukemia cell line (K-562); assay: In vitro cell growth inhibition assay (WST-1) with isobologram analysis of combination effect; assay type: cell-based; conditions: combined with the test compound (hydrochloride of Compound 22), 72 hours, isobologram method
Procedure: as §1, §6, §7

[7] = test system: human breast cancer cell line (BT-474); assay: as above; assay type: cell-based; conditions: combined with the test compound (hydrochloride of Compound 22), 72 hours, isobologram method
Procedure: as §1, §3
The solutions of the test compound and the combined compound diluted with culture medium were added to the plates in an amount of 10 μL/well, respectively, followed by further incubation in a 5% CO2 incubator at 37° C. for 72 hours. WST-1 reagent {4-[3-(4-iodophenyl)-2-(4-nitrophenyl)-2H-5-tetrazolio]-1,3-benzene disulfonate sodium salt} (Roche Diagnostics) was added to the wells in an amount of 10 μL/well and the plates were incubated in a CO2 incubator for 2 hours at 37° C.

[8] = test system: human multiple myeloma NCI-H929 cells; assay: Antitumor effect in a mouse model transplanted with human multiple myeloma NCI-H929 cells (combination with melphalan); assay type: in vivo, Fox C.B-17/Icr-scidJcl mice; conditions: day 14; test compound 50 mg/kg i.v. on days 0, 3, 7 and 10; melphalan 4 mg/kg i.v. on day 0
Procedure: On the day before the transplantation of cancer cells, 0.3 mg/mouse of an anti-asialo GM1 antibody (ca. 10 mg protein/1 mL vial) (Wako Pure Chemical Industries, Ltd.) was intraperitoneally administered to Fox C.B-17/Icr-scidJcl mice (Clea Japan, Inc.). NCI-H929 cells were cultured in RPMI1640 medium containing 10% fetal calf serum (FCS) in a 5% CO2 incubator at 37° C. and then transplanted into the abdominal subcutaneous tissue of the mice in an amount of 1×10^7 cells/mouse.
The day was defined as day 0 of the administration test, and administration was started.
The test compound was dissolved in physiological saline (Otsuka Pharmaceutical Co., Ltd.) at a concentration of 5 mg/mL and intravenously administered from the caudal vein in a dose of 0.01 mL/g body weight of mouse (50 mg/kg) once a day on days 0, 3, 7 and 10.
Melphalan was suspended in physiological saline (Otsuka Pharmaceutical Co., Ltd.) at a concentration of 0.4 mg/mL and intravenously administered from the caudal vein in a dose of 0.01 mL/g body weight of mouse (4 mg/kg) once a day on day 0. • A. Negative control group (Control): neither test compound nor melphalan administered • B. Test compound alone group: 50 mg/kg (once a day/administered on days 0, 3, 7 and 10) • C. […]
On and after day 0, the tumor volume was measured twice a week. […]

[9] = test system: human breast cancer KPL-4 cells; assay: Antitumor effect in a mouse model transplanted with human breast cancer KPL-4 cells; assay type: in vivo, BALB/cAJcl-nu mice; conditions: day 10; test compound 100 mg/kg i.v. twice a day x 5 days; paclitaxel 25 mg/kg i.v. days 0 and 3; trastuzumab 50 mg/kg i.v. days 0, 3, 7, 10, 14 and 17
Procedure: KPL-4 cells were cultured in DMEM containing 10% fetal calf serum (FCS) in a 5% CO2 incubator at 37° C. and then transplanted into the abdominal subcutaneous tissue of BALB/cAJcl-nu mice (Clea Japan, Inc.) in an amount of 1×10^7 cells/mouse. From the mice in which tumor grew, the tumor was excised and the tumor tissue was cut into ca. 8 mm^3 tissue pieces and then transplanted into the abdominal subcutaneous tissue of BALB/cAJcl-nu mice (Clea Japan, Inc.) using a trocar. Eighteen days after the transplantation, the longer diameter and shorter diameter of the subcutaneous tumor were measured with slide calipers, and the tumor volume was calculated according to the following equation.
as §8, §9

[10] = test system: human renal cancer cell line (VMRC-RCZ); assay: In vitro cell growth inhibition assay (WST-1) with isobologram analysis of combination effect; assay type: cell-based; conditions: combined with the test compound (hydrochloride of Compound 22), 72 hours, isobologram method
Procedure: as §1
For the culture of VMRC-RCZ, Minimum Essential Medium (MEM) (Invitrogen) containing 10% FCS, 0.1 mmol/L Non-Essential Amino Acids (NEAA, Invitrogen), 4 mmol/L HEPES, 2 mmol/L L-glutamine and 1.5 g/L sodium hydrogencarbonate was used. […]
The solutions of the test compound and the combined compound diluted with culture medium were added to the plates in an amount of 10 μL/well, respectively, followed by further incubation in a 5% CO2 incubator at 37° C. for 72 hours. […] The absorbance at 450 nm (control wavelength: 655 nm) was measured using a microplate spectrophotometer SPECTRA max 340PC (Molecular Devices). Separately, the solvent used for preparation of each compound solution alone was added to the wells, and the absorbance was measured in the same manner as above after 72-hour incubation carried out in the same manner as above and also immediately after the addition of the solvent. […]

CC(C)C[C@H](NC(=O)[C@H](Cc1ccccc1)NC(=O)c1cnccn1)B(O)O [Bortezomib, bortezomib]
Combination effect of test compound and each compound [1]: Envelope of additivity | T/C (V/V0 of each group divided by V/V0 of the negative control group) [2]: 0.45

Nc1ccn([C@@H]2O[C@H](CO)[C@@H](O)[C@@H]2O)c(=O)n1 [Cytarabine, cytarabine]
Combination effect of test compound and each compound [3]: Envelope of additivity

CC(=O)O[C@@]12CO[C@@H]1C[C@H](O)[C@@]1(C)C(=O)[C@H](O)C3=C(C)[C@@H](OC(=O)[C@H](O)[C@@H](NC(=O)OC(C)(C)C)c4ccccc4)C[C@@](O)([C@@H](OC(=O)c4ccccc4)[C@H]21)C3(C)C [Docetaxel, docetaxel]
Combination effect of test compound and each compound [4]: Envelope of additivity

C#Cc1cccc(Nc2ncnc3cc(OCCOC)c(OCCOC)cc23)c1 [Erlotinib, erlotinib]
Combination effect of test compound and each compound [4]: Sub-additive

COc1cc2ncnc(Nc3ccc(F)c(Cl)c3)c2cc1OCCCN1CCOCC1 [Gefitinib, gefitinib]
Combination effect of test compound and each compound [4]: Envelope of additivity | T/C (V/V0 of each group divided by V/V0 of the negative control group) [5]: 0.74

Cc1ccc(NC(=O)c2ccc(CN3CCN(C)CC3)cc2)cc1Nc1nccc(-c2cccnc2)n1 [Imatinib, imatinib]
Combination effect of test compound and each compound [6]: Sub-additive

CS(=O)(=O)CCNCc1ccc(-c2ccc3ncnc(Nc4ccc(OCc5cccc(F)c5)c(Cl)c4)c3c2)o1 [Lapatinib, lapatinib]
Combination effect of test compound and each compound [7]: Envelope of additivity

Nc1cccc2c1CN(C1CCC(=O)NC1=O)C2=O (stereo not shown) [Lenalidomide, lenalidomide]
Combination effect of test compound and each compound [1]: Envelope of additivity

N[C@@H](Cc1ccc(N(CCCl)CCCl)cc1)C(=O)O [Melphalan, melphalan]
Combination effect of test compound and each compound [1]: Envelope of additivity | T/C (V/V0 of each group divided by V/V0 of the negative control group) [8]: 0.63

CC(=O)O[C@H]1C(=O)[C@@]2(C)[C@H]([C@H](OC(=O)c3ccccc3)[C@]3(O)C[C@H](OC(=O)[C@H](O)[C@@H](NC(=O)c4ccccc4)c4ccccc4)C(C)=C1C3(C)C)[C@]1(OC(C)=O)CO[C@@H]1C[C@@H]2O [Paclitaxel, paclitaxel]
Combination effect of test compound and each compound [4]: Envelope of additivity | T/C (V/V0 of each group divided by V/V0 of the negative control group) [9]: 0.094

CNC(=O)c1cc(Oc2ccc(NC(=O)Nc3ccc(Cl)c(C(F)(F)F)c3)cc2)ccn1 [Sorafenib, sorafenib]
Combination effect of test compound and each compound [10]: Supra-additive

O=C(CCCCCCC(=O)Nc1ccccc1)NO [Vorinostat, vorinostat]
Combination effect of test compound and each compound [1]: Sub-additive
